Experiments:
[1] = Pharmacokinetic study in rats (Test Example 3), intravenous injection; assay type: in vivo; conditions: SD rats
From the text: (§1) 1.1.1. Experimental Animals: SD Rats, Male and Female, Weighing about 220 g. Housing Environment: SPF. The Animals were Transferred from the Animal Repository (999M-017) of the Laboratory Animal Management Department, Shanghai Institute of Planned Parenthood Research. 1.1.2. Administration Regimen:
A proper amount of the compound was accurately weighed out and well mixed with a proper volume of 10% DMSO+35% PEG400+55% normal saline by vortexing or ultrasonication to give a clear solution for intravenous injection.
Blood was collected at various time points after intravenous injection (before the administration and 0.0833, 0.25, 0.5, 1, 2, 4, 8 and 24 h after the administration). EDTA-K2 was used as the anticoagulant, and the esterase inhibitor DDVP was added. Plasma samples were separated and cryopreserved at −70° C., and the compound and tolvaptan levels were determined by LC-MS/MS.

[2] = Pharmacokinetic study in dogs (Test Example 1), intragastric administration; assay type: in vivo; conditions: beagles; for AUC(0-inf) / AUC(0-t) / Cmax / Tmax / half-life: beagle, dog, plasma, mean value
Protocol: (§2) 1.1.1. Experimental Animals: Beagles, Non-Naïve, Sourced from the Animal Repository of Medicilon: 999M-004.
A proper amount of tolvaptan and compound 5 was accurately weighed out and well mixed with a proper volume of 1% hydroxypropyl methylcellulose by vortexing or ultrasonication to give a 0.5 mg/mL solution of tolvaptan and a 2.15 mg/mL solution of compound 5 for intragastric administration.
(§3) Tolvaptan and compound 5 were intragastrically administrated. Blood was collected before the administration and 10 min, 30 min, 1 h, 2 h, 4 h, 6 h, 8 h and 24 h after the administration. EDTA-K2 was used as the anticoagulant, and the esterase inhibitor DDVP (manufacturer: Sigma) was added. Plasma samples were separated and cryopreserved at −70° C., and the compound 5 and tolvaptan levels were determined by LC-MS/MS.

[3] = Pharmacokinetic study in rats (Test Example 4), intragastric administration; assay type: in vivo; conditions: Sprague-Dawley, rat, plasma, SD rats, mean value
Protocol: as §1, with “180-220” for “220”
as §3, with “0.5 h,” for “30 min,”, “DDVP” for “DDVP (manufacturer: Sigma)”

[4] = Pharmacokinetic study in beagles (Test Example 5), intravenous drip and intragastric administration; assay type: in vivo; conditions: for AUC(0-t) / Cmax / Tmax / half-life: beagle, dog, plasma
Protocol: as §2
(§4) A proper amount of compound 1b disodium salt and compound 5 was accurately weighed out and well mixed with a proper volume of normal saline by vortexing or ultrasonication to give a 0.5 mg/mL clear solution of compound 1b disodium salt, a 0.25 mg/mL clear solution of compound 5 and a 1.35 mg/mL clear solution of compound 5 for intravenous drip administration.
(§5) A proper amount of tolvaptan and compound 5 was accurately weighed out and well mixed with a proper volume of 1% hydroxypropyl methylcellulose by vortexing or ultrasonication to give a 5 mg/mL solution of tolvaptan and a 1.35 mg/mL solution of compound 5 for intragastric administration.
(§6) The compounds of the intravenous administration group were administered via an intravenous drip over 1 h. The compounds of the intragastric administration group were intragastrically administered. Time points of blood collection were: before the administration and 30 min, 1 h, 1.5 h, 2 h, 4 h, 6 h, 12 h and 24 h after the administration. About 1 mL of blood was collected via the jugular vein or in other suitable ways. EDTA-K2 was used as the anticoagulant, and the esterase inhibitor DDVP was added. Plasma samples were separated and cryopreserved at −70° C., and the levels of related compounds in vivo were determined by LC-MS/MS. About 0.5 mL of blood was collected via the jugular vein or in other suitable ways, placed into separator gel blood collection tubes (without an anticoagulant) and centrifuged at room temperature at 3500 rpm for 10 min to separate the serum, and the concentration of Na^+ in the serum was determined by using the ion-selective electrode method.

[5] = molecular target: T1, Arginine vasopressin receptor 2 (AVPR2) (Homo sapiens, UniProt P30518); assay: Arginine vasopressin receptor 2 (AVPR2) receptor cAMP assay in Flpin-CHO-AVPR2 cells; assay type: cell-based, humans; conditions: arginine vasopressin stimulation
T1 construct: host or cells: Flpin-CHO (CHO cells)
T1 sequence (P30518 whole entry): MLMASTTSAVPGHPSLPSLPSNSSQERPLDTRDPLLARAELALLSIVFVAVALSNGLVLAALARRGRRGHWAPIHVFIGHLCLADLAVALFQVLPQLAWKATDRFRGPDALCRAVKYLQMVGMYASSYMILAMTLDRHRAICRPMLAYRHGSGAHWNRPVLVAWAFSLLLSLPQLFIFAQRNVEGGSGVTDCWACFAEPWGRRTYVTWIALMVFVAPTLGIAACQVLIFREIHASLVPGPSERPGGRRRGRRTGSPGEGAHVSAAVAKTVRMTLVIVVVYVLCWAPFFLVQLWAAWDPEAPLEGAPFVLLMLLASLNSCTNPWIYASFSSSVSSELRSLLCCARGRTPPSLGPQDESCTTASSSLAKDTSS
Protocol: The test compound was 5-fold diluted with assay buffer (Hank's balanced salt solution+20 mM HEPES+0.1% BSA+500 μM IBMX (manufacturer: Sigma)). The highest initial concentration of the test compound in the assay was 10 μM.
Flpin-CHO-AVPR2 (the cell strain was constructed by Pharmaron Beijing Co., Ltd.; AVPR2 was derived from humans)
• 1) Cells were digested, resuspended in assay buffer and inoculated into a 384-well cell culture plate at a density of 8000 cells per well and a volume of 15 μL per well. • 2) The compound was diluted with assay buffer. • 3) 2.5 μL of the compound was added to each well, and the plate was incubated at 37° C. for 10 min. • 4) Arginine vasopressin (manufacturer: MedChemExpress) was diluted with assay buffer to a concentration of 16 μM. • 5) 2.5 μL of the 16 μM solution of arginine vasopressin was added, and the plate was incubated at 37° C. for 30 min. • 6) Eu-cAMP tracer and Ulight-anti-cAMP were thawed and diluted with lysis buffer (Eu-cAMP tracer, Ulight-anti-cAMP and lysis buffer were all taken from the cAMP assay kit (manufacturer: Perkin Elmer)). • 7) 10 μL of Eu-cAMP tracer was added to the experimental wells, and then 10 μL of Ulight-anti-cAMP was added to the experimental wells. • 8) The reaction plate was centrifuged at room temperature at 200 g for 30 s and left at 25° C. for 1 h, and data collection was performed using a microplate reader.

beagles = assay: Blood sodium level (serum Na+, ion-selective electrode) in beagles (Test Example 5); assay type: in vivo; conditions: compound 5 administered intragastrically 2.7 mg/kg, FIG. 1
Protocol: as §4, §5
as §6, with “Time points of blood collection were: before the administration and 30 min, 1 h, 1.5 h, 2 h, 4 h, 6 h, 12 h and 24 h after the administration. About 1 mL of blood was collected via the jugular vein or in other suitable ways. EDTA-K2 was used as the anticoagulant, and the esterase inhibitor DDVP was added.” left out

[6] = both sexes, Sprague-Dawley, rat, plasma, iv, Compound M i.v. 3.91 mg/kg, molecule detected Compound M, mean value
[7] = Tolvaptan administered PO 1 mg/kg, molecule detected Tolvaptan
[8] = female, Tolvaptan PO 9 mg/kg, molecule detected Tolvaptan
[9] = male, Tolvaptan PO 9 mg/kg, molecule detected Tolvaptan
[10] = po, Tolvaptan 10 mg/kg p.o., molecule detected Tolvaptan, mean value
[11] = Compound 5 administered PO 4.3 mg/kg, molecule detected Compound 5
[12] = intragastric, tolvaptan converted in vivo from compound 5 vs tolvaptan administered
[13] = female, Compound 5 PO 12.9 mg/kg, molecule detected Compound 5
[14] = male, Compound 5 PO 12.9 mg/kg, molecule detected Compound 5
[15] = iv, Compound 5 0.5 mg/kg i.v. drip over 1 h, molecule detected Compound 5, mean value
[16] = iv, Compound 5 2.7 mg/kg i.v. drip over 1 h, molecule detected Compound 5, mean value
[17] = po, Compound 5 2.7 mg/kg p.o., molecule detected Compound 5, mean value

Cc1ccccc1C(=O)Nc1ccc(C(=O)N2CCCC(OC(=O)[C@@H](N)C(C)C)c3cc(Cl)ccc32)c(C)c1 (stereo partly drawn) [Compound M]
AUC(0-inf) [1, 6]: 824 ng·h/mL | AUC(0-t) [1, 6]: 786 ng·h/mL | Cmax [1, 6]: 719 ng/mL | Tmax [1, 6]: 8.34 min | clearance [1, 6]: 90.8 mL/min/kg | half-life [1, 6]: 1.17 h | Vd ([1]; both sexes, Sprague-Dawley, rat, plasma, iv, Compound M i.v. 3.91 mg/kg, molecule detected Compound M, mean value, read-out: Vss): 6.47 L/kg

Cc1ccccc1C(=O)Nc1ccc(C(=O)N2CCCC(O)c3cc(Cl)ccc32)c(C)c1 (stereo not drawn) [Tolvaptan, reference compound]
AUC(0-inf) [2, 7]: 26.3 ng·h/mL | AUC(0-t) [2, 7]: 21.6 ng·h/mL | Cmax [2, 7]: 7.08 ng/mL | Tmax [2, 7]: 1.5 h | half-life [2, 7]: 1.94 h | AUC(0-t) [3, 8]: 1820 ng·h/mL | Cmax [3, 8]: 412 ng/mL | Tmax [3, 8]: 2 h | half-life [3, 8]: 2.64 h | AUC(0-t) [3, 9]: 55.5 ng·h/mL | Cmax [3, 9]: 20.3 ng/mL | Tmax [3, 9]: 1.67 h | AUC(0-t) [4, 10]: 10.2 ng·h/mL | Cmax [4, 10]: 3.83 ng/mL | Tmax [4, 10]: 1.17 h | half-life [4, 10]: 2.61 h

Cc1ccccc1C(=O)Nc1ccc(C(=O)N2CCCC(OCOP(=O)(O)OCC[N+](C)(C)C)c3cc(Cl)ccc32)c(C)c1 (stereo not drawn) [Compound 5, ((7-Chloro-1-(2-methyl-4-(2-methylbenzamido)benzoyl)-2,3,4,5-tetrahydro-1H-benzo[b]azepin-5-yl)oxy)methyl (2-(trimethylammonio)ethyl) phosphate]
AUC(0-inf) [2, 11]: 162 ng·h/mL | AUC(0-t) [2, 11]: 156 ng·h/mL | Cmax [2, 11]: 88.7 ng/mL | Tmax [2, 11]: 0.389 h | half-life [2, 11]: 1.43 h | exposure compared with tolvaptan [2, 12]: higher exposure | half-life compared with tolvaptan [2, 12]: longer half-life | IC50 [5]: 8 nM | AUC(0-t) [3, 13]: 58.4 ng·h/mL | Cmax [3, 13]: 50.1 ng/mL | Tmax [3, 13]: 0.167 h | half-life [3, 13]: 1.67 h | AUC(0-t) [3, 14]: 46.1 ng·h/mL | Cmax [3, 14]: 44.4 ng/mL | Tmax [3, 14]: 0.167 h | half-life [3, 14]: 1.55 h | AUC(0-t) [4, 15]: 1200 ng·h/mL | Cmax [4, 15]: 889 ng/mL | Tmax [4, 15]: 1 h | half-life [4, 15]: 0.704 h | AUC(0-t) [4, 16]: 7850 ng·h/mL | Cmax [4, 16]: 5700 ng/mL | Tmax [4, 16]: 1 h | half-life [4, 16]: 0.647 h | AUC(0-t) [4, 17]: 122 ng·h/mL | Cmax [4, 17]: 61.5 ng/mL | Tmax [4, 17]: 0.5 h | half-life [4, 17]: 1 h | AUC0-t of tolvaptan converted from compound 5 compared with tolvaptan administered intragastrically ([4]; intragastric, compound 5 at a relatively low molar dose (2.7 mg/kg vs tolvaptan 10 mg/kg)): higher AUC0-t | elevating the blood sodium level (beagles): has the effect of elevating the blood sodium level

Cc1ccccc1C(=O)Nc1ccc(C(=O)N2CCCC(OC(=O)OCOC(=O)C(N)C(C)C)c3cc(Cl)ccc32)c(C)c1.Cl (stereo not drawn) [Hydrochloride of Compound 16]
plasma level of administered molecule ([1]; Hydrochloride of Compound 16 i.v. 4.41 mg/kg, molecule detected Hydrochloride of Compound 16): Undetectable

From patent US12662497B2, “Benzazepine compounds, preparation method therefor and pharmaceutical use thereof” (Shanghai Senhui Medicine Co., Ltd., priority 2021, dated 2026)
